Like-named read-outs stand apart in the source and are kept apart here.

These results are taken from article PMC9605374 (Marine Drugs, 2022).

The test system of data set [1] is 22Rv1 cells. Nature of the data set: Annexin-V-FITC/PI double staining, flow cytometry. It counts as cell-based, human. As to conditions: 22Rv1, zVAD 100 µM 1 h pretreatment, 48 h. The procedure:
Figure 4 Investigation of the proapoptotic activity of NB. Flow cytometry analysis of 22Rv1 cells after 48 h of treatment. (A) Cell cycle and DNA fragmentation analysis. Treated cells were stained with PI and analyzed using a flow cytometry technique. Sub-G1 population was assumed to be apoptotic cells containing fragmentated DNA. (B) Analysis of phosphatidylserine externalization. Treated cells were double-stained with annexin-V-FITC and PI and analyzed using the flow cytometry technique. Cells of the low left quadrant (annexin-V-FITC^−/PI^−) were considered as alive cells. The Cell Quest Pro v.5.2.1 software (BD Bioscience, San Jose, CA, USA) was used to analyze and quantify the FACS data. Cells treated for 48 h with 10 µM of anisomycin were used as a positive control. Number of replicates n = 3. Statistical significance: * p < 0.05 (ANOVA). […]
Externalization of phosphatidylserine is a distinct marker of apoptotic cell death that can be detected by flow cytometry using annexin-V-FITC and propidium iodide (PI) double staining. […] Cells were harvested utilizing trypsin, stained with annexin-V-FITC and propidium iodide, and analyzed using FACS Calibur (BD Bioscience, San Jose, CA, USA).
In general terms: Flow cytometry measures light scatter and fluorescence of single cells or particles in a stream.

Data set [2] has as its system VCaP. Nature of the data set: MTT assay, cell viability. It counts as cell-based. The following applies: Homo sapiens, 48 h of treatment, mean ± SD. The text has this: (§1) To examine the anticancer potential and selectivity of NB, we used a panel of six human prostate cancer cell lines, harboring different levels of treatment resistance to representatively reflect the heterogeneity of the disease. […] Additionally, four human noncancer cells lines were utilized in order to determine the selectivity of NB towards prostate cancer cells, i.e., prostate noncancer PNT2 and RWPE-1 cells, human embryonic kidney HEK 293T cells, and human fibroblasts MRC-9. The different cell lines were treated with NB and the cell viability was examined using MTT assay (Figure 1). The mean IC50 of NB and docetaxel (used as a reference substance) in noncancerous cell lines was divided by the mean IC50 in the prostate cancer cell lines to determine the selectivity index (SI).
(§2) The MTT assay was used to monitor the effect of the drugs on cell viability in terms of metabolic activity, as previously reported. First, preincubation of the cells in 96-well plates (6 × 10^3 cells/well in 100 μL/well) was performed overnight in the correspondent culture medium. Next, the medium was exchanged for fresh medium containing the investigated compounds or a vehicle (100 μL/well). Cells were then incubated for 48 h, unless otherwise stated. Then, 10 μL/well of 3-(4,5-dimethylthiazol-2-yl)-2,5-diphenyltetrazolium bromide reagent (MTT, 5 mg/mL) were added. After 2–4 h of additional incubation the media was removed, and the plates were dried. Finally, 50 μL/well of DMSO were added to solve the formed formazan crystals produced by the metabolic active cells and Infinite F200PRO reader (TECAN, Männedorf, Switzerland) was used to measure the cell viability. The results were proceeded with a GraphPad Prism software v.9.1.1 (GraphPad Software, San Diego, CA, USA). Cells treated with the solvent of the drugs alone were used as a control (100% alive cells). The effect of the drugs on cell viability is represented as IC50.
For orientation: Tetrazolium assays rely on reduction of a dye to a coloured formazan, in cell work by metabolically active cells.

Data set [3] relates to PC3. The data set is described as follows: MTT assay, cell viability. It counts as cell-based. The following applies: Homo sapiens, PC-3, PC3, 48 h of treatment, mean ± SD.
Source text: as §1, §2

Data set [4] has as its system RWPE-1. Nature of the data set: MTT assay, cell viability. The following applies: Homo sapiens, RWPE-1, 48 h of treatment, mean ± SD. It counts as cell-based.
Source text: as §1, §2

Data set [5] has as its system DU145. The data set is described as follows: MTT assay, cell viability. The following applies: Homo sapiens, DU-145, DU145, 48 h of treatment, mean ± SD. It counts as cell-based.
Source text: as §1, §2

For data set [6], the system named is 22Rv1. Nature of the data set: MTT assay, cell viability. It counts as cell-based. The following applies: Homo sapiens, 22Rv1, 48 h of treatment, mean ± SD.
Source text: as §1, §2

The subject of data set [7] is MRC-9. Nature of the data set: MTT assay, cell viability. As to conditions: Homo sapiens, MRC9, MRC-9, 48 h of treatment, mean ± SD. It counts as cell-based.
Source text: as §1, §2

The subject of data set [8] is HEK293. Nature of the data set: MTT assay, cell viability. It counts as cell-based. The following applies: Homo sapiens, HEK293, 48 h of treatment, mean ± SD.
Source text: as §1, §2

Data set [9] has as its system PNT2. The data set is described as follows: MTT assay, cell viability. It counts as cell-based. As to conditions: Homo sapiens, PNT2, 48 h of treatment, mean ± SD.
Source text: as §1, §2

Data set [10] relates to PC3-DR. Nature of the data set: MTT assay, cell viability. It counts as cell-based, human. As to conditions: Homo sapiens, PC3-DR, 48 h of treatment, mean ± SD.
Source text: as §1, §2

The subject of data set [11] is prostate cancer cells. The data set is described as follows: MTT assay, mean IC50 in cancer cell panel and selectivity index. It counts as cell-based, human.
Source text: as §1, §2

In data set [12] the test system is PC3-DR cells. The data set is described as follows: Drug combination study NB with docetaxel, MTT assay, SynergyFinder 2.0. As to conditions: Homo sapiens, PC3-DR, NB 0, 24 h, MTT. It counts as cell-based. On the procedure: Thus, drug-resistant PC3-DR cells were treated with docetaxel in combination with NB (Figure 9). Potential synergism between NB and docetaxel was measured by the Chou–Talalay method as described before.
Figure 9 Combinational treatment on PC3-DR cells with NB and docetaxel. […] MTT assay was used to examine cellular viability. Number of replicates n = 3. (A) The heatmap represents cytotoxicity (viability inhibition) of the individual drugs or their combinations. (B,C) To calculate and visualize in 2D (B) or 3D (C) the effect of the drug combination (synergism/additive effect/antagonism), the SynergyFinder v. 2.0 software (Network Pharmacology for Precision Medicine in the Research Program of System Oncology, Faculty of Medicine at University of Helsinki, Helsinki, Finland) and a ZIP reference model were used. Green regions indicate antagonism, white regions refer to additive effect, and red regions indicate synergism.
(§3) The experiments were carried out as previously reported. […] 22Rv1 cells (6 × 10^3 cells/well in 96-well plates) were simultaneously treated with NB and docetaxel; or pretreated with MAPK inhibitors for 1 h following treatment with NB in the total media volume of 100 µL/well. Following 24 h of incubation, the viability of the cells treated with individual drugs as well as their combinations was determined using MTT assay. […] Red areas (positive δ-values) and green areas (negative δ-values) indicate synergism and antagonism, respectively.

Data set [13] has as its system noncancer cells. The data set is described as follows: MTT assay, mean IC50 in noncancer cell panel. It counts as cell-based. The following applies: Homo sapiens, mean over PNT2, RWPE-1, HEK293, MRC-9, 48 h.
Source text: as §1
The MTT assay was used to monitor the effect of the drugs on cell viability in terms of metabolic activity, as previously reported. First, preincubation of the cells in 96-well plates (6 × 10^3 cells/well in 100 μL/well) was performed overnight in the correspondent culture medium. Next, the medium was exchanged for fresh medium containing the investigated compounds or a vehicle (100 μL/well). […] Finally, 50 μL/well of DMSO were added to solve the formed formazan crystals produced by the metabolic active cells and Infinite F200PRO reader (TECAN, Männedorf, Switzerland) was used to measure the cell viability. […]

Data set [14] has as its system PC3-DR cells. As to conditions: PC3-DR vs PC3; cited from earlier work.
In data set [15] the test system is 22Rv1 cells. Nature of the data set: Drug combination study NB with MAPK inhibitors, MTT assay, SynergyFinder 2.0. It counts as cell-based. As to conditions: Homo sapiens, MTT.
Source text: Whether activation of MAPKs contribute to cell death or survival depends not only on the cellular context, but also on the nature of the activating stimuli. Thus, to reveal the function of JNK1/2 and p38 in the anticancer effect of NB, we co-treated 22Rv1 cells with NB and specific inhibitors of the above-mentioned MAPKs. […] As MEK1/2 kinase directly and exclusively activates ERK1/2, PD98039 inhibitor is often used as an ERK1/2 inhibitor [38]. Thus, an inactivation of MEK1/2 leads solely to an inhibition of ERK1/2 [38]. Since the inhibitors themselves exert cytotoxic effects in cancer cells, we used a Chou–Talalay method to distinguish between synergism, additive effects, or antagonistic effects of the particular MAPK inhibitor on the compound bioactivity. For this, using an MTT assay, we determined a cytotoxic effect on various concentrations of NB, MAPK inhibitors, and their combinations in 22Rv1 cells. The viability data were further analyzed using the SynergyFinder v. 2.0 software (Network Pharmacology for Precision Medicine in the Research Program of System Oncology, Faculty of Medicine at University of Helsinki, Helsinki, Finland) and a Zero interaction potency (ZIP) reference model (Figure 7).
as §3

The subject of data set [16] is HeLa cells. Details: method as in PMID 28051860. The following applies: cited from earlier work.

With `COc1ccc(C[C@H]2NC[C@H](O)[C@H]2OC(C)=O)cc1` [Anisomycin, anisomycin, reference compound], the “effect of pretreatment with pan-caspase inhibitor zVAD on drug-induced cell death” value in data set [1] is “strongly inhibited”.

As a reminder, the IC50 is the concentration needed to halve the response being measured. By inhibition is commonly meant the drop in the measured response relative to a control, in per cent. Regarding `CC(=O)O[C@@]12CO[C@@H]1C[C@H](O)[C@@]1(C)C(=O)[C@H](O)C3=C(C)[C@@H](OC(=O)[C@H](O)[C@@H](NC(=O)OC(C)(C)C)c4ccccc4)C[C@@](O)([C@@H](OC(=O)c4ccccc4)[C@H]21)C3(C)C` [Docetaxel, docetaxel, reference compound], the IC50 is 0.23 ± 0.22 nM in data set [2]; 7.49 ± 7.09 nM in data set [3]; 0.42 ± 0.23 nM in data set [4]; 2.2 ± 0.6 nM in [5]; 0.6 ± 0.12 nM in data set [6]; > 500 nM in data set [7]. Further, the IC50 in data set [8] is 11.5 ± 3.22 nM; in [9], > 500 nM; in data set [10], 325 ± 21.7 nM; in data set [11] (Homo sapiens, mean over PC3, PC3-DR, DU145, 22Rv1, VCaP, LNCaP, 48 h, MTT), 56.8 nM; in data set [13] it was 253 nM. Besides, the “Selectivity Index (SI)” value in data set [11] ([mean IC50 in noncancer cells]/[mean IC50 in cancer cells]) is 4.5. The inhibition at 0.00625 µM in [12] (docetaxel 6.25 nM) was determined as 8.64%. In addition, the inhibition at 0.025 µM in data set [12] (docetaxel 25 nM) was 18.7%. Also, the inhibition at 0.1 µM in data set [12] (docetaxel 100 nM) turned out to be 31%. Also, the inhibition at 0.4 µM in data set [12] (docetaxel 400 nM) is 58.8%. For the same compound, the “fold less sensitivity of PC3-DR compared to parental cell line” value in data set [14] was ~ 50 fold. Further, the “fold more resistant compared to the parental cell line PC3” value in data set [14] was ~ 50 fold.

Consider `C[S+]([O-])c1ccc(-c2nc(-c3ccncc3)c(-c3ccc(F)cc3)[nH]2)cc1` (stereo not drawn) [SB203580, reference compound], for which the inhibition at 12.5 µM in data set [15] (22Rv1, 22Rv1, inhibitor alone 12.5 μM (NB 0)) was 27.6%. In addition, the inhibition at 25 µM in data set [15] (22Rv1, 22Rv1, inhibitor alone 25 μM (NB 0)) stood at 39.7%. Besides, in [15] (22Rv1, 22Rv1, inhibitor alone 50 μM (NB 0)), the inhibition at 50 µM was 53.3%. For the same compound, the inhibition at 100 µM in data set [15] (22Rv1, 22Rv1, inhibitor alone 100 μM (NB 0)) is 63.9%.

`Oc1c2ccccc2c2c3c(cccc13)N=N2` [SP600125, reference compound]: in data set [15] (22Rv1, inhibitor alone 12.5 μM (NB 0), read-out: Inhibition (%)), the inhibition at 12.5 µM is -5.92%. Moreover, the inhibition at 25 µM in [15] (22Rv1, inhibitor alone 25 μM (NB 0), read-out: Inhibition (%)) is 0.99%. Also, the inhibition at 50 µM in data set [15] (22Rv1, inhibitor alone 50 μM (NB 0), read-out: Inhibition (%)) came out at 19.4%. The inhibition at 100 µM in data set [15] (22Rv1, inhibitor alone 100 μM (NB 0), read-out: Inhibition (%)) was 27.5%.

`COc1ccc2cc(NC(=O)C3=NO[C@H]4[C@H](O)C=C[C@@H](O)[C@@]4(O)C3)c(=O)oc2c1OC` [trichodermamide A]: the “cytotoxic activity in HeLa cells” value in data set [16] was “inactive”.

With `COc1ccc2cc(NC(=O)C3=NO[C@H]4[C@H](O)C=C[C@@H](Cl)[C@@]4(O)C3)c(=O)oc2c1OC` [trichodermamide B], the “cytotoxic activity in HeLa cells” value in data set [16] is given as “high cytotoxic activity”.

Turning to `COc1ccc2cc(N(C)C(=O)C3=NO[C@H]4[C@H](O)C=C[C@@H](O)[C@@]4(O)C3)c(=O)oc2c1OC` [trichodermamide C], the “cytotoxic activity in HeLa cells” value in [16] is “inactive”.
